B1: CRP: purified human C-reactive protein (Calbiochem) (protein, UniProt P02741 19-224, looked up)
C-reactive protein: QTDMSRKAFVFPKESDTSYVSLKAPLTKPLKAFTVCLHFYTELSSTRGYSIFSYATKRQDNEILIFWSKDIGYSFTVGGSEILFEVPEVTVAPVHICTSWESASGIVEFWVDGKPRVRKSLKKGYTVGAEASIILGQEQDSFGGNFEGSQSLVGDIGNVNMWDFVLSPDEINTIYLGGPFSPNVLNWRALKYEVQGEVFTKPQLWP
B2: Protein S: purified human protein S, vitamin K-dependent anticoagulant (Calbiochem) (protein, UniProt P07225 42-676, looked up)
Vitamin K-dependent protein S: ANSLLEETKQGNLERECIEELCNKEEAREVFENDPETDYFYPKYLVCLRSFQTGLFTAARQSTNAYPDLRSCVNAIPDQCSPLPCNEDGYMSCKDGKASFTCTCKPGWQGEKCEFDINECKDPSNINGGCSQICDNTPGSYHCSCKNGFVMLSNKKDCKDVDECSLKPSICGTAVCKNIPGDFECECPEGYRYNLKSKSCEDIDECSENMCAQLCVNYPGGYTCYCDGKKGFKLAQDQKSCEVVSVCLPLNLDTKYELLYLAEQFAGVVLYLKFRLPEISRFSAEFDFRTYDSEGVILYAESIDHSAWLLIALRGGKIEVQLKNEHTSKITTGGDVINNGLWNMVSVEELEHSISIKIAKEAVMDINKPGPLFKPENGLLETKVYFAGFPRKVESELIKPINPRLDGCIRSWNLMKQGASGIKEIIQEKQNKHCLVTVEKGSYYPGSGIAQFHIDYNNVSSAEGWHVNVTLNIRPSTGTGVMLALVSGNNTVPFAVSLVDSTSEKSQDILLSVENTVIYRIQALSLCSDQQSHLEFRVNRNNLELSTPLKIETISHEDLQRQLAVLDKAMKAKVATYLGGLPDVPFSATPVNAFYNGCMEVNINGVQLDLDEAISKHNDIRAHSCPSVWKKTKNS
B3: IL-4: cytokine, activator of the fibrotic response (protein, UniProt P05112 25-153, looked up)
Interleukin-4: HKCDITLQEIIKTLNSLTEQKTLCTELTVTDIFAASKNTTEKETFCRAATVLRQFYSHHEKDTRCLGATAQQFHRHKQLIRFLKRLDRNLWGLAGLNSCPVKEANQSTLENFLERLKTIMREKYSKCSS

System: monocyte to fibrocyte differentiation (PBMC)
Assay: Fibrocyte differentiation assay: PBMC cultured in serum-free medium, fibrocytes enumerated by morphology
Assay type: cell-based, human
Details: for number of fibrocytes in culture: concentrations between 10 and 0.1 ng/ml; for number of fibrocytes in culture / ability to inhibit fibrocyte differentiation: PBMC in serum-free medium; for ability to inhibit fibrocyte differentiation: commercially available purified proteins, 6 days
Procedure: The rapid appearance of these cells, within 3 days of culture, was inhibited by human serum or plasma. To examine this process in more detail, PBMC were cultured at 5×10^5 cells per ml in serum-free medium containing increasing concentrations of human plasma for 6 days. […] The activity in the serum that inhibited fibrocyte formation was retained by a 30 kDa cutoff spin-filter (data not shown).
Plasma was fractionated by BaCl2 precipitation, heparin and ion exchange chromatography. Protein concentrations were assessed by spectrophotometry at 280 nm. Inhibition of fibrocyte differentiation was assessed by morphology. The fibrocyte inhibitory activity of a sample was defined as the reciprocal of the dilution at which it inhibited fibrocyte differentiation by 50%, when added to serum-free medium.
Serum amyloid P is a constitutive plasma protein and is closely related to CRP, the major acute phase protein in humans. […] Serum and plasma contain between 30-50 μg/ml SAP.
Cells were incubated in serum-free medium: RPMI (GibcoBRL Life, Invitrogen, Carlsbad, Calif., USA) supplemented with 10 mM HEPES (GibcoBRL/Life), 2 mM glutamine, 100 U/ml penicillin and 100 μg/ml streptomycin, 0.2% bovine serum albumin (BSA, Sigma), 5 μg/ml insulin (Sigma), 5 μg/ml iron-saturated transferrin (Sigma) and 5 ng/ml sodium selenite (Sigma). Normal human serum (Sigma), normal human plasma (Gulf Coast Regional Blood Center) or fetal calf serum (Sigma), column fractions, sera and synovial fluid from patients or purified proteins were added at the stated concentrations. Patient samples were obtained from a repository available to researchers at University of Texas Medical School at Houston. This repository keeps patient information confidential, and meets all NIH guidelines.
PBMC were cultured in 24 or 96 well tissue culture plates in 2 ml or 200 μl volumes respectively (Becton Dickinson, Franklin Lakes, N.J.) at 2.5×10^5 cells per ml in a humidified incubator containing 5% CO2 at 37° C. for the indicated times. Fibrocytes in 5 different 900 μm diameter fields of view were enumerated by morphology in viable cultures as adherent cells with an elongated spindle-shaped morphology as distinct from small lymphocytes or adherent monocytes. Alternatively cells were air dried, fixed in methanol and stained with haematoxylin and eosin (Hema 3 Stain, VWR, Houston, Tex.). Fibrocytes were counted using the above criterion and the presence of an oval nucleus. Enumeration of fibrocytes was performed on cells cultured for 6 days in flat-bottomed 96 well plates, with 2.5×10^4 cells per well. In addition, fibrocyte identity was confirmed by immunoperoxidase staining (see below). The fibrocyte inhibitory activity of a sample was defined as the reciprocal of the dilution at which it inhibited fibrocyte differentiation by 50%, when added to serum-free medium.
Experiments have shown that IL-4 and IL-13 are capable of promoting fibrocyte differentiation in vitro. Specifically, PBMC were cultured in serum-free medium in the presence of IL-4 or IL-13. […] Therefore a bandage or other topical agarose formulation as described above additionally containing IL-4 and/or IL-13 is expected to show further improvements in wound healing.

Row | Molecule | number of fibrocytes in culture | ability to inhibit fibrocyte differentiation | also measured
1 | IL-13: cytokine, activator of the fibrotic response | enhanced the number of fibrocytes | – | –
2 | SAP: commercially available purified human serum amyloid P (Calbiochem), a pentraxin plasma protein | – | able to inhibit fibrocyte differentiation | activity from dilution curve (commercially available SAP): approximately 6.6×10^3 units/mg; concentration of maximal inhibitory activity (commercially available purified SAP): 1 µg/mL; SAP concentration at the plasma dilution at which fibrocytes began to appear, comparable to the threshold concentration of purified SAP (worked out from 0.5% plasma and 30-50 μg/ml SAP): 0.15 to 0.25 µg/mL
3 | B1 | – | only SAP was able to inhibit fibrocyte differentiation | –
4 | B2 | – | only SAP was able to inhibit fibrocyte differentiation | –
5 | B3 | enhanced the number of fibrocytes | – | –

Reference: US7935682B2, “Wound healing dressing for enhancing fibrocyte formation” (William Marsh Rice University, priority 2002, dated 2011)
